Results reported in US20140328757A1, “COMPOSITIONS COMPRISING ASCORBIC ACID AND AN IMAGING AGENT AND RELATED METHODS” (Lantheus Medical Imaging, Inc., priority 2011, published 2014).
One block for each molecule: values may come before it.

How the values were obtained:
[1] = cited from earlier work
[2] = pH and the chemical integrity (rate of non-radioactive impurity formation) of the non-radioactive congener; type: physicochemical; conditions: ascorbic acid 50 mg/mL, congener 5 μg/mL, ethanol 5%, treated with [18F]NaF
Protocol: (§1) Both chemical integrity and overall stability of a radiopharmaceutical composition is measured through determination of the change in RCP of the labeled compound over time using ITLC or more preferably HPLC. The advantage of using HPLC is that impurities caused by radiolytic degradation may be readily separated from the labeled compound under certain chromatographic conditions. […] Several HPLC methods have been developed for monitoring the stability of radiopharmaceutical compositions of the present invention:
(§2) Analytical HPLC was performed on an Agilent Technologies 1100 LC containing a spectrophotometric detection system. Non-radiochemical impurities were evaluated at 295 nm using a Waters Zorbax SB-C18 column (4.6×50 mm, 1.8 μm) with an 8%/min gradient from 20-100% MeCN containing 0.1% formic acid and 10% H2O at 1 mL/min
The chemical integrity of radiopharmaceutical compositions containing the non-radioactive congener of the imaging agent (2-(tert-butyl)-4-chloro-5-((4-((2-fluoroethoxy)methyl)benzyl)oxy)pyridazin-3(2H)-one) was assessed over a range of pH values. […] The resulting solutions were treated with [^18F]NaF then monitored for changes in chemical purity (non-radioactive impurities) over time using the HPLC methods outlined in Example 5.

[3] = Concentration of ascorbic acid and the stability (radiochemical purity over time) of an imaging agent; type: physicochemical; conditions: pH 5.8
Protocol: (§3) was then collected, diluted with an ascorbic acid solution (10-15 mL), then passed through a C18 Sep-Pak® cartridge, previously conditioned with 10 mL of ethanol followed by 10 mL of an ascorbic acid solution; The imaging agent was retained within the C18 resin matrix and the filtrate discarded. The cartridge was then successively washed with an ascorbic acid solution (10 mL), the filtrate discarded, then absolute ethanol (≦0.5 mL) and the filtrate collected. The resulting ethanol concentrate of the imaging agent was then diluted with an ascorbic acid solution prior to use.
(§4) Both chemical integrity and overall stability of a radiopharmaceutical composition is measured through determination of the change in RCP of the labeled compound over time using ITLC or more preferably HPLC. The advantage of using HPLC is that impurities caused by radiolytic degradation may be readily separated from the labeled compound under certain chromatographic conditions. […]
The stability of radiopharmaceutical compositions containing an imaging agent was assessed over a range of ascorbic acid concentration values. […] Each solution was then utilized in the preparation of the imaging agent described in Example 4, and the resulting compositions monitored for changes in radiochemical purity over time using the HPLC methods described in Example 5.

[4] = pH and the stability (radiochemical purity over time) of an imaging agent; type: physicochemical; conditions: ascorbic acid solutions with higher pH values (pH 5.8 and 6.5) versus more acidic compositions (pH 2.4-4.6)
Protocol: as §3, §4
Analytical HPLC was performed on an Agilent Technologies 1100 LC containing a radiometric detection system. Radiochemical impurities were evaluated using a Berthold radiation detector and a Waters Zorbax SB-C18 column (4.6×50 mm, 1.8 μm) using an isocratic elution (45:55 H2O/MeCN) at 1 mL/min […]
The stability of radiopharmaceutical compositions containing an imaging agent was assessed over a range of pH values. […]

[5] = Stability (radiochemical purity over time by HPLC) of radiopharmaceutical compositions over a range of ascorbic acid and radioactivity concentrations; type: physicochemical; conditions: pH 5.8
Description: The radiochemical purity (RCP) of a labeled compound (i.e., as in Example 3) is known to be dependent on certain conditions of its preparation including, but not limited to, reaction temperature, solution pH and overall synthesis time. Once prepared with high RCP, the labeled compound is formulated into a radiopharmaceutical composition designed to stabilize the labeled compound over time. Certain radiopharmaceutical compositions of the present invention are effective in maintaining the stability of labeled compounds for up to 12 h.
as §1
Analytical HPLC was performed on an Agilent Technologies 1100 LC containing a radiometric detection system. Radiochemical impurities were evaluated using a Berthold radiation detector and a Waters Zorbax SB-C18 column (4.6×50 mm, 1.8 μm) using an isocratic elution (45:55 H2O/MeCN) at 1 mL/min
as §2
Analytical HPLC was performed on an Agilent Technologies 1100 LC containing both radiometric and spectrophotometric detection systems. Radiochemical impurities were evaluated using a Raytest GabiStar radiation detector and non-radiochemical impurities were evaluated at 295 nm both using a Waters Zorbax SB-C18 column (4.6×50 mm, 1.8 μm) with a 6%/min gradient from 20-50% MeCN, followed by a 1.4%/min gradient from 50-60% MeCN, followed by a 2%/min gradient from 60-70% MeCN each containing 0.1% formic acid and 10% H2O at 1 mL/min.
Analytical HPLC was performed on an Agilent Technologies 1100 LC containing both radiometric and spectrophotometric detection systems. Radiochemical impurities were evaluated using a Raytest GabiStar radiation detector and non-radiochemical impurities were evaluated at 295 nm both using a Waters Zorbax SB-C18 column (4.6×50 mm, 1.8 μm) with a 30%/min gradient from 30-60% MeCN, followed by a 2 min isocratic hold at 60% MeCN, followed by a 5%/min gradient from 60-80% MeCN each containing 0.1% trifluoroacetic acid and 10% H2O at 1 mL/min
Aqueous [^18F]fluoride, as prepared in Example 1, was filtered through an anion exchange column to remove unreacted [^18O]H2O; [^18F]fluoride was retained within the […] resin matrix. The column was then washed with aqueous Et4NHCO3 with transfer to the reaction vessel. The resulting solution was diluted with MeCN then concentrated to dryness using elevated temperature and reduced pressure. The mixture of anhydrous [^18F]Et4NF and Et4NHCO3 thus obtained was treated with the acetonitrile solution of the imaging agent precursor as prepared in Example 2, then warmed to 85-120° C. and maintained 5-20 min. After cooling, the solution was diluted with H2O or H2O/MeCN then directly purified by HPLC using a 45:55 H2O/MeCN eluent. The main product peak was collected and diluted with ascorbic acid (10 mL of a 0.28 M solution; pH 2).
was retained within the C18 resin matrix and the filtrate discarded. The cartridge was successively washed with ascorbic acid (10 mL of a 0.28 M solution in H2O; pH 2), the filtrate discarded, then absolute EtOH (≦0.50 mL), and the filtrate collected. […]

SMILES: O=C1O[C@H]([C@@H](O)CO)C(O)=C1O [ascorbic acid]
- pKa [1]: about 4.2

- Reduction in the rate of impurity formation (non-radioactive impurities, FIG. 2) ([2]; over the pH range considered (4.0-8.2)): ten-fold reduction
SMILES: CC(C)(C)n1ncc(OCc2ccc(COCCF)cc2)c(Cl)c1=O [2-(tert-butyl)-4-chloro-5-((4-((2-fluoroethoxy)methyl)benzyl)oxy)pyridazin-3(2H)-one]
- Reaction order of formation of certain non-radioactive impurities (FIG. 2) [2]: first order

- RCP (FIG. 3) ([3]; ascorbic acid 20 mg/mL): overall decrease in RCP
- Initial RCP and variability in RCP over time (FIG. 3) ([3]; ascorbic acid 200 to 50 mg/mL): do not significantly change
- Radiochemical Purity ([5]; 0 h, ascorbic acid 30 mg/mL, 29.5 mCi/mL, Siemens GN module): 100.0%
- Radiochemical Purity ([5]; 0 h, ascorbic acid 30 mg/mL, 68.0 mCi/mL, Eckert & Ziegler module): 100.0%
- Radiochemical Purity ([5]; 0 h, ascorbic acid 50 mg/mL, 44.8 mCi/mL, Eckert & Ziegler module): 100.0%
- Radiochemical Purity ([5]; 0 h, ascorbic acid 50 mg/mL, 47.0 mCi/mL, Siemens GN module): 100.0%
- Radiochemical Purity ([5]; 0 h, ascorbic acid 50 mg/mL, 50.0 mCi/mL, Siemens RN module): 100.0%
- Radiochemical Purity ([5]; 0 h, ascorbic acid 50 mg/mL, 65.4 mCi/mL, GE MX module): 100.0%
- Radiochemical Purity ([5]; 0 h, ascorbic acid 50 mg/mL, 115.9 mCi/mL, Siemens GN module): 99.7%
- Radiochemical Purity ([5]; 3 h, ascorbic acid 30 mg/mL, 29.5 mCi/mL, Siemens GN module): 100.0%
- Radiochemical Purity ([5]; 3 h, ascorbic acid 30 mg/mL, 68.0 mCi/mL, Eckert & Ziegler module): 97.6%
- Radiochemical Purity ([5]; 3 h, ascorbic acid 50 mg/mL, 44.8 mCi/mL, Eckert & Ziegler module): 100.0%
- Radiochemical Purity ([5]; 3 h, ascorbic acid 50 mg/mL, 47.0 mCi/mL, Siemens GN module): 100.0%
- Radiochemical Purity ([5]; 3 h, ascorbic acid 50 mg/mL, 50.0 mCi/mL, Siemens RN module): 98.2%
- Radiochemical Purity ([5]; 3 h, ascorbic acid 50 mg/mL, 65.4 mCi/mL, GE MX module): 100.0%
- Radiochemical Purity ([5]; 3 h, ascorbic acid 50 mg/mL, 115.9 mCi/mL, Siemens GN module): 97.1%
- Radiochemical Purity ([5]; 6 h, ascorbic acid 30 mg/mL, 29.5 mCi/mL, Siemens GN module): 100.0%
- Radiochemical Purity ([5]; 6 h, ascorbic acid 30 mg/mL, 68.0 mCi/mL, Eckert & Ziegler module): 96.7%
- Radiochemical Purity ([5]; 6 h, ascorbic acid 50 mg/mL, 44.8 mCi/mL, Eckert & Ziegler module): 100.0%
- Radiochemical Purity ([5]; 6 h, ascorbic acid 50 mg/mL, 47.0 mCi/mL, Siemens GN module): 99.2%
- Radiochemical Purity ([5]; 6 h, ascorbic acid 50 mg/mL, 50.0 mCi/mL, Siemens RN module): 99.0%
- Radiochemical Purity ([5]; 6 h, ascorbic acid 50 mg/mL, 65.4 mCi/mL, GE MX module): 98.7%
- Radiochemical Purity ([5]; 6 h, ascorbic acid 50 mg/mL, 115.9 mCi/mL, Siemens GN module): 97.1%
- Radiochemical Purity ([5]; 9 h, ascorbic acid 30 mg/mL, 29.5 mCi/mL, Siemens GN module): 100.0%
- Radiochemical Purity ([5]; 9 h, ascorbic acid 30 mg/mL, 68.0 mCi/mL, Eckert & Ziegler module): 96.2%
- Radiochemical Purity ([5]; 9 h, ascorbic acid 50 mg/mL, 44.8 mCi/mL, Eckert & Ziegler module): 100.0%
- Radiochemical Purity ([5]; 9 h, ascorbic acid 50 mg/mL, 47.0 mCi/mL, Siemens GN module): 99.4%
- Radiochemical Purity ([5]; 9 h, ascorbic acid 50 mg/mL, 50.0 mCi/mL, Siemens RN module): 98.0%
- Radiochemical Purity ([5]; 9 h, ascorbic acid 50 mg/mL, 65.4 mCi/mL, GE MX module): 99.3%
- Radiochemical Purity ([5]; 9 h, ascorbic acid 50 mg/mL, 115.9 mCi/mL, Siemens GN module): 96.0%
- Radiochemical Purity ([5]; 12 h, ascorbic acid 30 mg/mL, 29.5 mCi/mL, Siemens GN module): 100.0%
- Radiochemical Purity ([5]; 12 h, ascorbic acid 30 mg/mL, 68.0 mCi/mL, Eckert & Ziegler module): 96.1%
- Radiochemical Purity ([5]; 12 h, ascorbic acid 50 mg/mL, 44.8 mCi/mL, Eckert & Ziegler module): 100.0%
- Radiochemical Purity ([5]; 12 h, ascorbic acid 50 mg/mL, 47.0 mCi/mL, Siemens GN module): 99.5%
- Radiochemical Purity ([5]; 12 h, ascorbic acid 50 mg/mL, 50.0 mCi/mL, Siemens RN module): 98.2%
- Radiochemical Purity ([5]; 12 h, ascorbic acid 50 mg/mL, 65.4 mCi/mL, GE MX module): 96.9%
- Radiochemical Purity ([5]; 12 h, ascorbic acid 50 mg/mL, 115.9 mCi/mL, Siemens GN module): 96.0%
- Initial RCP and variability in RCP over time ([5]; over 30 to 50 mg/mL ascorbic acid and 30 to 115 mCi/mL): do not significantly change
SMILES: CC(C)(C)n1ncc(OCc2ccc(COCC[18F])cc2)c(Cl)c1=O [imaging agent, 2-tert-butyl-4-chloro-5-[4-(2-[18F]fluoro-ethoxymethyl)-benzyloxy]-2H-pyridazin-3-one]
- Initial RCP and change in RCP over time (FIG. 1) [4]: markedly less initial stability and stability to storage
